Legend:
[1] = Acute toxicity in po dosed albino mouse; type: organism-based; conditions: in vivo, read-out: ALD50
[2] = system: Rattus norvegicus; experiment: Antiinflammatory activity in Charles-Foster albino rat assessed as inhibition of carrageenan-induced hind paw edema at 50 mg/kg, po relative to control; type: functional
[3] = system: Rattus norvegicus; experiment: Antiinflammatory activity in Charles-Foster albino rat assessed as inhibition of carrageenan-induced hind paw edema at 100 mg/kg, po relative to control; type: functional
[4] = system: Rattus norvegicus; experiment: Antiinflammatory activity in Charles-Foster albino rat assessed as inhibition of carrageenan-induced hind paw edema at 25 mg/kg, po relative to control; type: functional

| Compound | LD50 [1] | inhibition in vivo at 50 mg/kg [2] | inhibition in vivo at 100 mg/kg [3] | inhibition in vivo at 25 mg/kg [4] |
| --- | --- | --- | --- | --- |
| COc1ccc(C2C(Cl)C(=O)N2n2c(CSc3nnc(-c4ccncc4)o3)nc3ccccc3c2=O)cc1 (stereo not drawn) | > 1000 mg/kg | 26.1% | – | – |
| COc1ccc(C2SCC(=O)N2n2c(CSc3nnc(-c4ccncc4)o3)nc3ccc(Br)cc3c2=O)cc1 (stereo not drawn) | > 1000 mg/kg | 35.3% | – | – |
| O=C1C(Cl)C(c2ccc(O)cc2)N1n1c(CSc2nnc(-c3ccncc3)o2)nc2ccccc2c1=O (stereo not drawn) | > 1000 mg/kg | 25.7% | – | – |
| O=C1C(Cl)C(c2ccccc2)N1n1c(CSc2nnc(-c3ccncc3)o2)nc2ccc(Br)cc2c1=O (stereo not drawn) | > 1000 mg/kg | 26.3% | – | – |
| O=C1CSC(c2ccccc2)N1n1c(CSc2nnc(-c3ccncc3)o2)nc2ccc(Br)cc2c1=O (stereo not drawn) | > 1000 mg/kg | 31.3% | – | – |
| O=C1C(Cl)C(c2ccc(O)cc2)N1n1c(CSc2nnc(-c3ccncc3)o2)nc2ccc(Br)cc2c1=O (stereo not drawn) | > 1000 mg/kg | 27.4% | – | – |
| O=C1C(Cl)C(c2ccccc2)N1n1c(CSc2nnc(-c3ccncc3)o2)nc2ccccc2c1=O (stereo not drawn) | > 1000 mg/kg | 25.1% | – | – |
| O=C1CSC(c2ccccc2)N1n1c(CSc2nnc(-c3ccncc3)o2)nc2ccccc2c1=O (stereo not drawn) | > 1000 mg/kg | 30.1% | – | – |
| O=c1c2cc(Br)ccc2nc(CSc2nnc(-c3ccncc3)o2)n1/N=C/c1ccc(O)cc1 | > 1000 mg/kg | 22.3% | – | – |
| O=C1CSC(c2ccc(Cl)cc2)N1n1c(CSc2nnc(-c3ccncc3)o2)nc2ccccc2c1=O (stereo not drawn) | > 1000 mg/kg | 34.1% | – | – |
| O=c1c2ccccc2nc(CSc2nnc(-c3ccncc3)o2)n1/N=C/c1ccc(Cl)cc1 | > 1000 mg/kg | 23.7% | – | – |
| O=C1CSC(c2ccc(O)cc2)N1n1c(CSc2nnc(-c3ccncc3)o2)nc2ccccc2c1=O (stereo not drawn) | > 1000 mg/kg | 31.7% | – | – |
| COc1ccc(/C=N/n2c(CSc3nnc(-c4ccncc4)o3)nc3ccccc3c2=O)cc1 | > 1000 mg/kg | 20% | – | – |
| O=c1c2ccccc2nc(CSc2nnc(-c3ccncc3)o2)n1/N=C/c1ccc(O)cc1 | > 1000 mg/kg | 18.2% | – | – |
| O=C1C(Cl)C(c2ccc(Cl)cc2)N1n1c(CSc2nnc(-c3ccncc3)o2)nc2ccccc2c1=O (stereo not drawn) | > 1000 mg/kg | 27.9% | – | – |
| O=C1CSC(c2ccc(Cl)cc2)N1n1c(CSc2nnc(-c3ccncc3)o2)nc2ccc(Br)cc2c1=O (stereo not drawn) | > 1000 mg/kg | 25.2% | 66.9% | 25.2% |
| CCCCC1C(=O)N(c2ccccc2)N(c2ccccc2)C1=O [PHENYLBUTAZONE] | – | 36.8% | 66.4% | 25.4% |
| COc1ccc(C2C(Cl)C(=O)N2n2c(CSc3nnc(-c4ccncc4)o3)nc3ccc(Br)cc3c2=O)cc1 (stereo not drawn) | > 1000 mg/kg | 28.6% | – | – |
| O=c1c2cc(Br)ccc2nc(CSc2nnc(-c3ccncc3)o2)n1/N=C/c1ccc(Cl)cc1 | > 1000 mg/kg | 26.4% | – | – |
| COc1ccc(C2SCC(=O)N2n2c(CSc3nnc(-c4ccncc4)o3)nc3ccccc3c2=O)cc1 (stereo not drawn) | > 1000 mg/kg | 33.8% | – | – |
| O=c1c2ccccc2nc(CSc2nnc(-c3ccncc3)o2)n1/N=C/c1ccccc1 | > 1000 mg/kg | 16.3% | – | – |
| COc1ccc(/C=N/n2c(CSc3nnc(-c4ccncc4)o3)nc3ccc(Br)cc3c2=O)cc1 | > 1000 mg/kg | 24.4% | – | – |
| O=C1CSC(c2ccc(O)cc2)N1n1c(CSc2nnc(-c3ccncc3)o2)nc2ccc(Br)cc2c1=O (stereo not drawn) | > 1000 mg/kg | 32.7% | – | – |
| O=c1c2cc(Br)ccc2nc(CSc2nnc(-c3ccncc3)o2)n1/N=C/c1ccccc1 | > 1000 mg/kg | 19.4% | – | – |
| O=C1C(Cl)C(c2ccc(Cl)cc2)N1n1c(CSc2nnc(-c3ccncc3)o2)nc2ccc(Br)cc2c1=O (stereo not drawn) | > 1000 mg/kg | 29.9% | – | – |

From ChEMBL document CHEMBL1152864, “Synthesis and anti-inflammatory activity of newer quinazolin-4-one derivatives” (Eur J Med Chem, 2009)
